Measurements taken from US20060275170A1, “Method for terminal sterilization of transdermal delivery devices” (priority 2005, published 2006).
Entries after “also recorded” stand apart in the source; their conditions may differ.

Tests used:
Assay type in all cases: physicochemical
[1] = Example 4: purity of coated hPTH(1-34) after 15 kGy gamma or e-beam; desiccant, temperature and sucrose content varied (RP-HPLC, SEC-HPLC)
Protocol: In this example, formulations of hPTH(1-34) were prepared, comprising 20% w/w HPTH, 20% sucrose or 40% sucrose, 0.2% polysorbate 20 and 0.03% EDTA. The arrays were assembled with a polycarbonate retainer ring and an adhesive. The arrays were sealed in foil pouches purged with nitrogen. Certain samples included a 4 Å molecular seive desiccant. The arrays were exposed to 15 kGy of gamma or e-beam radiation at under dry ice, 2-8° C. or an ambient temperature. As discussed above, the purity and degradation of the PTH formulations was assessed using RP-HPLC and SEC-HPLC.

[2] = Example 1: purity and degradation products of hPTH(1-34) coated microprojection arrays after gamma or e-beam irradiation (RP-HPLC and SEC-HPLC)
Protocol: Validation reverse-phase and size-exclusion high pressure liquid chromatography (RP-HPLC and SEC-HPLC, respectively) were used to quantify PTH oxidation resulting from exposure to the sterilizing radiation. Formulations of hPTH(1-34) were prepared, comprising 20% w/w HPTH, 20% sucrose, 0.2% polysorbate 20 and 0.03% EDTA. The PTH formulations were coated onto microprojection arrays, which were then enclosed in glass vials. The coated arrays were irradiated with 7, 14 or 21 kGy radiation doses, from either gamma radiation or e-beam, under dry ice or an ambient temperature. […] Tables 1 and 2 give the data corresponding to the purity and degradation products for gamma radiation and e-beam, respectively.

[3] = Example 3: purity and oxidation of coated hPTH(1-34) after gamma irradiation; packaging, purge gas and temperature varied (RP-HPLC, SEC-HPLC)
Protocol: Formulations of hPTH(1-34) were prepared as set forth in Example 1, and coated on microprojection arrays. Certain arrays were assembled with a polycarbonate retainer ring and an adhesive. The arrays were sealed in foil pouches purged with nitrogen or ambient air or in glass vials. The arrays were exposed to 14 or 21 kGy of gamma radiation under dry ice or an ambient temperature. As discussed above, the purity and degradation of the PTH formulations was assessed using RP-HPLC and SEC-HPLC.

[4] = Example 2: purity and oxidation of coated hPTH after gamma irradiation or ethylene oxide sterilization; packaging and antioxidants varied (RP-HPLC, SEC-HPLC); conditions: for degradation: glass vial
Protocol: Formulations of hPTH(1-34) were prepared as set forth in Example 1, and coated on microprojection arrays. In addition to the standard 1:1 sucrose:hPTH formulations discussed above, the effect of antioxidants was assessed by adding to selected samples 5% w/w methionine or 3.3% w/w ascorbic acid. The coated arrays were placed in nitrogen purged heat-sealed foil pouches or glass vials. Also, one of the samples was subjected to ethylene oxide sterilization as a comparison. The remaining samples were subjected to dose of gamma radiation of either 7, 14 or 21 kGy under dry ice or an ambient temperature. As discussed above, the purity and degradation of the PTH formulations was assessed using RP-HPLC and SEC-HPLC.

CC[C@H](C)[C@H](NC(=O)[C@H](CCC(=O)O)NC(=O)[C@H](CO)NC(=O)[C@@H](NC(=O)[C@@H](N)CO)C(C)C)C(=O)N[C@@H](CCC(N)=O)C(=O)N[C@@H](CC(C)C)C(=O)N[C@@H](CCSC)C(=O)N[C@@H](Cc1cnc[nH]1)C(=O)N[C@@H](CC(N)=O)C(=O)N[C@@H](CC(C)C)C(=O)NCC(=O)N[C@@H](CCCCN)C(=O)N[C@@H](Cc1cnc[nH]1)C(=O)N[C@@H](CC(C)C)C(=O)N[C@@H](CC(N)=O)C(=O)N[C@@H](CO)C(=O)N[C@@H](CCSC)C(=O)N[C@@H](CCC(=O)O)C(=O)N[C@@H](CCCN=C(N)N)C(=O)N[C@H](C(=O)N[C@@H](CCC(=O)O)C(=O)N[C@@H](Cc1c[nH]c2ccccc12)C(=O)N[C@@H](CC(C)C)C(=O)N[C@@H](CCCN=C(N)N)C(=O)N[C@@H](CCCCN)C(=O)N[C@@H](CCCCN)C(=O)N[C@@H](CC(C)C)C(=O)N[C@@H](CCC(N)=O)C(=O)N[C@@H](CC(=O)O)C(=O)N[C@H](C(=O)N[C@@H](Cc1cnc[nH]1)C(=O)N[C@@H](CC(N)=O)C(=O)N[C@@H](Cc1ccccc1)C(=O)O)C(C)C)C(C)C [hPTH(1-34)]
impact of amount of sucrose on stability during irradiation ([1]; 1:1 versus 2:1 sucrose:hPTH, gamma or e-beam, FIG. 15): did not have a significant impact | degradation, e-beam sterilization versus gamma irradiation ([1]; 15 kGy, same temperature, FIG. 13): less degradation | degradation ([1]; sample without a desiccant, 15 kGy, FIG. 13): most degradation | loss of purity ([2]; 7 kGy under dry ice, compared with other doses and temperatures): least loss of purity | degradation (oxidation) ([2]; 21 kGY dose, particularly at an ambient temperature): less degradation | aggregation following irradiation ([2]; FIG. 6, gamma and e-beam, 7-21 kGy): relatively low | degradation, e-beam sterilization less than gamma radiation ([2]; at the high radiation doses): 5-10% | purity of PTH relative to a control formulation ([2]; gamma radiation and e-beam exposure, FIG. 5): decreased | deamidated products ([2]; irradiated formulations versus control formulation): comparable to the control formulation | stability following irradiation ([3]; arrays with polycarbonate retainer ring and acrylate adhesive, nitrogen purged foil pouch, 14 and 21 kGy, dry ice, FIG. 12): adequate stability | oxidation ([3]; gamma 14 kGy, foil pouch sealed with ambient air, dry ice and ambient temperature, FIG. 11): major oxidation | purity ([3]; gamma 14 kGy, nitrogen purged foil pouch, dry ice and ambient temperature, FIG. 11): comparable to the controls | increase in oxidation ([3]; gamma 21 kGy, ambient temperature, nitrogen purged foil pouch, FIG. 10): approximately 2% | oxidation ([3]; gamma 21 kGy, ambient temperature, nitrogen purged glass vial, FIG. 10): approximately 40% | increase in overall oxidation ([3]; gamma 21 kGy, nitrogen purged foil pouch, ambient temperature): less than 4% | increase in overall oxidation ([3]; gamma 21 kGy, nitrogen purged foil pouch, dry ice): less than 2% | loss in purity relative to the control ([3]; gamma 21 kGy, nitrogen purged foil pouch, FIG. 9): did not suffer a significant loss in purity | deamidation and aggregation degradation products ([4]; FIG. 8): not prominent | degradation ([4]; ethylene oxide sterilization): considerable degradation; also recorded: severe | morphology ([4]; ethylene oxide sterilized sample): altered substantially | degradation ([4]; gamma 21 kGy, ambient temperature, FIG. 8): severe | oxidation ([4]; gamma irradiated samples packaged in nitrogen purged foil pouches): minimal oxidation | purity of hPTH ([4]; gamma radiation, samples other than 21 kGy glass vial ambient (foil pouch, dry ice, 7 or 14 kGy), FIG. 7): comparable to that of the controls
